In US20260284074A1, “ENT1 Inhibitors in Combination with Checkpoint Inhibitors” (iTeos Belgium SA, priority 2023, published 2026):

How the values were obtained:
[1] = Dynamic vapor sorption (DVS); type: physicochemical
Protocol: (§1) METHOD A: In Example 5, approximately 5-15 mg of sample was placed into a mesh vapor sorption balance pan and loaded into either a DVS Intrinsic or DVS Advantage dynamic vapor sorption balance by Surface Measurement Systems. The sample was subjected to a ramping profile from 40-90% relative humidity (RH) at 10% increments, maintaining the sample at each step until a stable weight had been achieved (dm/dt 0.004%, minimum step length 30 minutes, maximum step length 500 minutes) at 25° C. After completion of the sorption cycle, the sample was dried using the same procedure to 0% RH and then a second sorption cycle back to 40% RH was carried out. Two cycles were performed. The weight change during the sorption/desorption cycles were plotted, allowing the hygroscopic nature of the sample to be determined. XRPD analysis was then carried out on the residual solid.
as §1, with “B:” for “A:”, “1,” for “5,”, “10-20” for “5-15”, “determined.” for “determined. XRPD analysis was then carried out on the residual solid.”

human T cells [2] = assay: [3H]adenosine uptake in activated human T cells; type: cell-based
Description: Applicant observed that activated human T cells took up [3H]adenosine, and this uptake was reduced in the presence of the selective ENT1 inhibitor dilazep, confirming that ENT1 is the dominant transporter involved in adenosine uptake in T cells.
Human T cells were activated for 2 days in the presence of Compound 1 or dilazep. The cells were then washed and used in a [^3H]adenosine uptake experiment. […] (See FIG. 27A.)

human T cells [3] = assay: T cell proliferation by CFSE dilution in the presence of ATP; type: cell-based; conditions: human T cells activated in presence of 100 μM ATP, CFSE dilution, read-out: IC50, restoration of T cell proliferation
Protocol: Human T cells were activated in the presence of 100 μM ATP and dilazep or Compound 1 and proliferation was monitored by CarboxyFluoroscein Succinimidyl Ester (CFSE) dilution. […] (See FIG. 27B.)

MDA-MB-231 cells = assay: MDA-MB-231 subcutaneous tumor model in humanized NCG mice; type: in vivo, mouse; conditions: day 51; Compound 1 30 mg/kg i.p. twice a day; nivolumab 10 mg/kg i.p. every 5 days
Protocol: The anti-tumor therapeutic efficacy of Compound 1 monotherapy, nivolumab monotherapy, and Compound 1-nivolumab combination therapy was assessed in ‘humanized’ mice with subcutaneous tumors resulting from the subcutaneous injection of MDA-MB-231 cells, a human triple-negative breast cancer cell line.
Human cell line xenograft experiments were performed at Transcure (France) and all associated animal procedures were reviewed and approved by the local ethics committee. The experiment was carried out with the NOD-Prkdc^em26cd52Il2rg^em26cd22/NjuCrl immunodeficient mouse strain (NCG from Charles River Laboratories, Wilmington, MA, USA). Four-week-old immunodeficient NCG mice were engrafted with cord-blood-derived human CD34^+ hematopoietic stem and progenitor cells (French Blood Institute, Paris, France) 2 days after chemical myeloablative treatment. Fourteen weeks after cell injection, engraftment level was monitored with the analysis of human CD45^+ cells among total blood leukocytes by flow cytometry (Attune, Life Technologies/Thermo Fisher Scientific, Waltham, MA, USA). […]
All the animals used were monitored daily, checking their clinical signs of distress and body weight and tumors were measured three times a week using an electronic caliper. The tumor volume was determined by applying the formula Length×(Width)^2×0.5. […]

COc1cc(C(=O)O[C@@H]2CCCOc3cc(cc(OC)c3OC)C(=O)NCCCN3CCCN(CC2)CC3)cc(OC)c1OC
Water uptake (DVS) ([1]; at 80% RH, second sorption cycle, after likely formation of amorphous material): 3.3% | Water uptake (DVS) ([1]; between 40-80% RH, first sorption cycle): 0.9% | Hygroscopicity (DVS) ([1]; first sorption cycle, 25° C.): slightly hygroscopic | Water uptake (DVS) ([1]; further uptake between 80-90% RH, first sorption cycle): 3.8%

COc1cc(C(=O)O[C@@H]2CCCOc3cc(cc(OC)c3OC)C(=O)NCCCN3CCCN(CC2)CC3)cc(OC)c1OC (single isomer, unassigned)
Moisture uptake (DVS) ([1]; RH raised to 80% from 10%, 25° C.): 1.7% | Moisture uptake (DVS) ([1]; between 0 and 10% RH, 25° C.): about 6.3%

COc1cc(C(=O)OCCCN2CCCN(CCCOC(=O)c3cc(OC)c(OC)c(OC)c3)CC2)cc(OC)c1OC [dilazep]
IC50 (human T cells [2]; Homo sapiens, T-cell, T cells activated 2 days in presence of compound, washed, [3H]adenosine uptake, read-out: IC50, inhibition of uptake of adenosine into human T cells): 1.2 nM | [3H]adenosine uptake by activated human T cells (human T cells [2]; in the presence of the inhibitor): reduced | IC50 (human T cells [3]): 2.4 nM

nivolumab [anti-PD-1, reference compound]
Tumor volume compared with vehicle group (MDA-MB-231 cells): not statistically significantly different
